# Experimental data taken from publication PMC2974656, “Selective killing of human immunodeficiency virus infected cells by non-nucleoside reverse transcriptase inhibitor-induced activation of HIV protease” (Retrovirology, 2010).
# Columns and labels:
# [1] = set-up: method as in PMID 12545140; conditions: under therapy; cited from earlier work
# [2] = Cytotoxicity on uninfected control cells, EGFP fluorescence per well; format: cell-based; conditions: human, MT4-CMV-EGFP control cells (uninfected); 4 days; mean ± SD; tested up to 10 μM; read-out: Cytotoxicity on MT4-CMV-EGFP control cells CC50
# Experimental: (§1) The cytotoxicity of inhibitors was determined in parallel on MT4-CMV-EGFP control cells and on MT4-LTR-EGFP-IIIB virus producing cells, respectively.
# HIV-1IIIB = test: Direct antiviral activity: MT4-LTR-EGFP cells infected with HIV-1IIIB, EGFP fluorescence; format: cell-based; conditions: Human immunodeficiency virus 1, 72 h, read-out: Inhibition of HIV replication in vitro EC50
# Experimental: After 3 days of incubation, infected cells were quantified by determination of total EGFP fluorescence per well based on microscopy and subsequent image analysis. Threshold values were determined from the average pixel value plus 6 standard deviations from the uninfected control wells, and the median threshold from all control wells on a plate was defined as baseline GFP expression. Intensity values for the sample wells were then determined by subtracting the background threshold from each pixel value obtained from the image of the respective well and calculating the sum of net pixel intensities. Percent inhibition was calculated as 100 * (1 - (Sample - CC)/(VC - CC)).
# [3] = test system: MT4-LTR-EGFP-IIIB HIV-1 producing cells; test: in vitro; format: cell-based; conditions: summary of Table 1
# Experimental: as §1
# in vitro = format: cell-based; conditions: human, 4 days
# Experimental: as §1
# [4] = test system: intracellular Gag processing by HIV PR; format: cell-based, HIV-1
# Experimental: In previous studies, high concentrations of NNRTI (5 μM) were required to observe NNRTI mediated activation of intracellular HIV PR activity. […]. Towards this end, we developed a biochemical assay for gel independent quantitation of intracellular Gag processing by HIV PR in the context of a virus producing cell. We had previously shown that additional protein domains, consisting of small epitope tags or even the 27 kDa green fluorescent protein (EGFP), can be inserted between the MA and CA domains of the Gag and Gag-Pol polyproteins without affecting polyprotein production or processing by HIV PR [36]. Based on this, we designed a HIV reporter construct which contained a small N-terminal fragment ('alpha peptide') of Escherichia coli beta-galactosidase (β-Gal), flanked by two HIV PR recognition sites, between the MA and CA coding sequences of Gag (Figure 1A). […] This so called alpha complementation principle can be exploited for use in mammalian cells and has been employed for the establishment of various cell based biochemical assay systems. We reasoned that embedding of the small alpha peptide within the multi-domain polyproteins Gag or Gag-Pol, respectively, should impair its productive association with the omega subunit, while proteolytic release of the alpha peptide from the polyprotein by PR would allow the formation of enzymatically active β-Gal. This should allow us to monitor intracellular Gag and Gag-Pol processing through increased β-Gal activity.
# Reconstituted β-Gal activity in cell lysates was measured by cleavage of the chromogenic substrate CPRG [42] as described in Methods.
# The activity of β-Gal in cell lysates from transfected 293T cells was measured by enzymatic cleavage of the chromogenic β-Gal substrate chlorphenolred-β-D-galactopyranoside (CPRG, Roche; [42]). At 44 h post transfection, cells were briefly rinsed with PBS and suspended in reporter gene assay lysis buffer (Roche, 600 μl per 6-well dish) supplemented with a protease inhibitor mix (Roche). Cell suspensions were incubated for 10 min at room temperature and cell debris was subsequently removed by brief centrifugation. Five μl of supernatant were diluted in 96-well plates with 95 μl CPRG reaction buffer (50 mM potassium phosphate, pH 7.5, 1 mM MgCl2) and pre-warmed for 5 min to 37°C. 100 μl of pre-warmed reaction mix (100 μM CPRG in CPRG reaction buffer supplemented with protease inhibitor cocktail and 40 μM β-mercaptoethanol) were added and β-Gal mediated cleavage of CPRG was monitored by recording absorption at 592 nm every 2 min for 20 min at 37°C using a TECAN Safire multi-well reader. OD592 values were plotted over time and relative reaction rates (OD592/min) were determined from the initial linear velocities.
# Gag processing by HIV PR = test: Immunoblot analysis of Gag processing in transfected 293T cells; format: cell-based, HIV-1; conditions: 2 μM LPV
# Experimental: 293T cells were seeded in 6-well plates and transfected with the indicated constructs using FuGene6 (Roche) according to the manufacturer's instructions. Cell lysates and tissue culture supernatants were harvested at 44-48 h post transfection. Virus was purified by ultracentrifugation through a 20% (w/w) sucrose cushion. Cell lysates, tissue culture supernatants or pelleted viral particles were separated by SDS-PAGE (17.5% acrylamide; acrylamide:bisacrylamide 200:1). Proteins were transferred to nitrocellulose by semi-dry blotting and detected using polyclonal antisera raised against recombinant HIV-1 CA or MA, or a commercial antiserum against β-Gal (Abcam, ab616), respectively.
# [5] = test system: intracellular Gag processing by HIV PR; format: cell-based, HIV-1; conditions: 2 μM LPV, 48 h post transfection; DMSO control 0.109 min^-1
Compound,Peak serum levels [1],CC50 at 4 days [2],EC50 (HIV-1IIIB),"Cytotoxicity on MT4-LTR-EGFP-IIIB cells, in words [3]","CC50 at 4 days (in vitro; no DRV, mean ± SD, tested up to 10 μM, read-out: Cytotoxicity on MT4-LTR-EGFP-IIIB HIV-1 producing cells CC50)","CC50 at 4 days (in vitro; CC50 on virus producing cells in the absence of DRV, one representative experiment (Fig. 3C), 4 parameter fit)","Gag processing or β-Gal activity, pCHIV.MAα variant with D25A mutation (PR-) ([4]; 5 μM EFV)","β-Gal activity, pCHIV.MAα 2PR (linked PR dimer) ([4]; 5 μM EFV)","β-Gal activity, pCHIV.MAα ([4]; 5 μM EFV, equal amounts of pCHIV.MAα and pCMVω)","Concentration required to achieve the maximal effect on β-Gal activity ([4]; 293T cells, 44 h post transfection)",Gagα processing as determined by immunoblot (Gag processing by HIV PR),Relative rate of CPRG cleavage [5],"β-Gal activity in the cell lysates ([4]; 2 μM LPV, result in words)"
"O=C1Nc2ccc(Cl)cc2[C@@](C#CC2CC2)(C(F)(F)F)O1 [EFV, efavirenz]",micromolar range,> 10000 nM,1.9 ± 0.9 nM,less cytotoxic,1710 ± 430 nM,2440 nM,no increase,No effect,significant increase,~ 1 μM,,,
"Cc1cccc(C)c1OCC(=O)N[C@@H](Cc1ccccc1)[C@@H](O)C[C@H](Cc1ccccc1)NC(=O)[C@H](C(C)C)N1CCCNC1=O [LPV, lopinavir]",,,,,,,,,,,nearly completely blocked,0.054 min⁻¹,"reduced, but did not abolish"
